Test results published in the supplement of paper PMC6045584.
± gives the standard deviation of the averaged measurements.

Experiments:
METHOTREXATE = compound: CN(Cc1cnc2nc(N)nc(N)c2n1)c1ccc(C(=O)N[C@@H](CCC(=O)O)C(=O)O)cc1 [METHOTREXATE]; assay: surviving fraction relative to DMSO-only wells; higher = less growth inhibition; settings: exposure time: 5 days
Outline: (§1)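 Five days of continuous inhibitor exposure, at 0.5, 1, 5, 10, 50, 100, 500 and 1000 nM, followed a 24-hour period after log-phase tumour cell lines were seeded at 250–500 cells per well in 384-well plates. Surviving fraction was derived from CellTiter-Glo luminescence relative to the median of DMSO-only wells. Plates were read after 10 minutes at room temperature, and lines screened three times were kept only if replicate Pearson r >0.7 and median Z' >0.3.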

ERLOTINIB = compound: C#Cc1cccc(Nc2ncnc3cc(OCCOC)c(OCCOC)cc23)c1 [ERLOTINIB]; assay: as above; settings: exposure time: 5 days
Outline: as §1

Test System | surviving fraction (METHOTREXATE; 0.5 nM) | surviving fraction (METHOTREXATE; 1 nM) | surviving fraction (METHOTREXATE; 5 nM) | surviving fraction (METHOTREXATE; 10 nM) | surviving fraction (METHOTREXATE; 50 nM) | surviving fraction (METHOTREXATE; 100 nM) | surviving fraction (METHOTREXATE; 500 nM) | surviving fraction (METHOTREXATE; 1000 nM) | surviving fraction (ERLOTINIB; 0.5 nM) | surviving fraction (ERLOTINIB; 1 nM) | surviving fraction (ERLOTINIB; 5 nM) | surviving fraction (ERLOTINIB; 10 nM) | surviving fraction (ERLOTINIB; 50 nM) | surviving fraction (ERLOTINIB; 100 nM) | surviving fraction (ERLOTINIB; 1000 nM) | surviving fraction (ERLOTINIB; 500 nM)
MDAMB453 BREAST | 1.04 ± 0.088 | 1.06 ± 0.025 | 1.12 ± 0.068 | 1.04 ± 0.038 | 0.966 ± 0.024 | 0.757 ± 0.028 | 0.655 ± 0.039 | 0.66 ± 0.018 | 1.11 ± 0.065 | 1.05 ± 0.029 | 1.11 ± 0.057 | 1.088 ± 0.0092 | 1.09 ± 0.065 | 1.06 ± 0.022 | 1.01 ± 0.026 | –
MDAMB468 BREAST | 1.12 ± 0.046 | 1.09 ± 0.072 | 1.11 ± 0.042 | 1.12 ± 0.025 | 0.263 ± 0.015 | 0.083 ± 0.0027 | 0.0627 ± 0.0057 | 0.065 ± 0.001 | 1.06 ± 0.052 | 0.995 ± 0.038 | 1.14 ± 0.072 | 1.05 ± 0.035 | 1.15 ± 0.12 | 1.105 ± 0.011 | 0.748 ± 0.04 | 0.902 ± 0.06
MFM223 BREAST | 1.18 ± 0.11 | 1.3 ± 0.3 | 1.35 ± 0.41 | 1.41 ± 0.43 | 1.09 ± 0.096 | 0.98 ± 0.046 | 1.04 ± 0.035 | 1.01 ± 0.018 | 1.44 ± 0.48 | 1.5 ± 0.64 | 1.49 ± 0.59 | 1.48 ± 0.48 | 1.16 ± 0.13 | 1.2 ± 0.039 | 1.16 ± 0.033 | 1.22 ± 0.052
MG63 BONE | 1.05 ± 0.051 | 1.07 ± 0.047 | 1.11 ± 0.042 | 1.1 ± 0.052 | 0.364 ± 0.016 | 0.197 ± 0.0027 | 0.178 ± 0.01 | 0.17 ± 0.0082 | – | 1.08 ± 0.041 | 1.12 ± 0.014 | 1.1 ± 0.019 | 1.14 ± 0.045 | 1.1 ± 0.047 | – | 1.07 ± 0.066
MHM BONE | 1.02 ± 0.036 | 1.04 ± 0.044 | 1.05 ± 0.078 | 1.06 ± 0.038 | 0.784 ± 0.016 | 0.723 ± 0.04 | 0.689 ± 0.019 | 0.699 ± 0.01 | 1.02 ± 0.036 | 1.03 ± 0.035 | – | – | 1.04 ± 0.016 | 1.064 ± 0.001 | 0.998 ± 0.03 | 1.038 ± 0.01
NCIH441 LUNG | 1.15 ± 0.12 | 1.14 ± 0.099 | 1.12 ± 0.023 | 1.11 ± 0.062 | 1.04 ± 0.12 | 0.882 ± 0.067 | 0.882 ± 0.11 | 0.855 ± 0.1 | 1.2 ± 0.086 | 1.16 ± 0.14 | 1.09 ± 0.083 | 1.08 ± 0.12 | 1.08 ± 0.067 | 1.11 ± 0.1 | 1.17 ± 0.12 | 0.992 ± 0.086
NOS1 BONE | 1.07 ± 0.13 | 1.05 ± 0.12 | 1.16 ± 0.08 | 1.15 ± 0.041 | 1.26 ± 0.25 | 1.4 ± 0.33 | 1.19 ± 0.13 | 1.12 ± 0.06 | 1.22 ± 0.035 | – | 1.24 ± 0.15 | 1.18 ± 0.075 | 1.33 ± 0.045 | 1.14 ± 0.094 | 0.561 ± 0.011 | 0.827 ± 0.16
NY BONE | 0.978 ± 0.015 | 0.993 ± 0.013 | 1.07 ± 0.068 | 0.97 ± 0.037 | 0.56 ± 0.023 | 0.566 ± 0.03 | 0.475 ± 0.026 | 0.42 ± 0.025 | 1.01 ± 0.019 | 0.963 ± 0.029 | – | 1.05 ± 0.037 | – | – | – | 0.983 ± 0.01
OS25HAL BONE | 0.998 ± 0.041 | 1.01 ± 0.035 | 1.05 ± 0.029 | 0.786 ± 0.031 | 0.357 ± 0.022 | 0.217 ± 0.017 | 0.166 ± 0.0076 | 0.164 ± 0.0066 | 0.997 ± 0.016 | 1.04 ± 0.048 | 1.02 ± 0.024 | – | 1.09 ± 0.063 | 1.17 ± 0.043 | 1 ± 0.035 | 1.09 ± 0.027
OSHN BONE | 1.12 ± 0.015 | 1.077 ± 0.0067 | 0.197 ± 0.0074 | 0.201 ± 0.0096 | 0.282 ± 0.031 | 0.265 ± 0.0081 | 0.251 ± 0.023 | 0.255 ± 0.031 | 1.07 ± 0.029 | 1.1 ± 0.016 | 1.1 ± 0.026 | 1.07 ± 0.029 | – | 1.163 ± 0.0072 | 1.1173 ± 0.0011 | 1.161 ± 0.001
PCI30 HEADNECK | 0.988 ± 0.075 | 1.02 ± 0.062 | 1.11 ± 0.037 | 1.09 ± 0.075 | 1.05 ± 0.055 | 0.96 ± 0.029 | 0.811 ± 0.016 | 0.758 ± 0.071 | 1.05 ± 0.12 | – | 1.12 ± 0.066 | 1.07 ± 0.078 | – | 0.951 ± 0.1 | 0.508 ± 0.029 | 0.538 ± 0.036
RDES SOFT TISSUE | 1.2 ± 0.1 | 1.26 ± 0.021 | 0.831 ± 0.19 | 0.295 ± 0.015 | 0.055 ± 0.0036 | 0.0457 ± 0.0015 | 0.0463 ± 0.0046 | 0.0447 ± 0.0015 | 1.21 ± 0.057 | 1.28 ± 0.14 | 1.12 ± 0.18 | 1.27 ± 0.015 | – | 1.28 ± 0.1 | 1.32 ± 0.1 | 1.24 ± 0.025
S68 BREAST | 0.882 ± 0.3 | 0.879 ± 0.25 | 1.1 ± 0.15 | 1.21 ± 0.29 | 1.07 ± 0.13 | 1.21 ± 0.16 | 1.04 ± 0.18 | 1.17 ± 0.12 | 1.05 ± 0.32 | 1.07 ± 0.37 | 0.808 ± 0.13 | 1.15 ± 0.036 | 1.14 ± 0.25 | 1.11 ± 0.3 | 0.564 ± 0.03 | 0.743 ± 0.079
SAOS2 BONE | 1.2 ± 0.051 | 1.18 ± 0.037 | 1.25 ± 0.05 | 1.25 ± 0.023 | 1.04 ± 0.031 | 0.841 ± 0.035 | 0.752 ± 0.018 | 0.753 ± 0.028 | 1.22 ± 0.066 | 1.2 ± 0.044 | 1.18 ± 0.095 | 1.24 ± 0.035 | 1.26 ± 0.12 | 1.23 ± 0.051 | 1.05 ± 0.075 | 1.09 ± 0.094
SCC36 HEADNECK | 1.1 ± 0.11 | 1.1 ± 0.042 | 1.15 ± 0.076 | 1.16 ± 0.14 | 0.828 ± 0.022 | 0.731 ± 0.017 | 0.575 ± 0.046 | 0.626 ± 0.082 | – | 0.929 ± 0.089 | 1.06 ± 0.032 | 1.07 ± 0.057 | – | 0.82 ± 0.033 | 0.397 ± 0.038 | 0.548 ± 0.059
SCC47 HEADNECK | 1.11 ± 0.097 | 1.15 ± 0.098 | 1.06 ± 0.019 | 0.946 ± 0.15 | 0.827 ± 0.04 | 0.814 ± 0.03 | 0.773 ± 0.033 | 0.789 ± 0.019 | 1.13 ± 0.079 | 1.11 ± 0.015 | 1.231 ± 0.0078 | 1.17 ± 0.092 | 1.15 ± 0.051 | 1.07 ± 0.021 | 0.724 ± 0.037 | 0.822 ± 0.052
SCC90 HEADNECK | 1.07 ± 0.075 | 1.05 ± 0.11 | 1.07 ± 0.066 | 1.09 ± 0.098 | 0.954 ± 0.015 | 0.852 ± 0.068 | 0.424 ± 0.06 | 0.416 ± 0.031 | 1.1 ± 0.091 | 1.1 ± 0.011 | 1.13 ± 0.038 | 1 ± 0.036 | 0.94 ± 0.11 | 0.82 ± 0.086 | 0.534 ± 0.057 | 0.585 ± 0.049
SG27 HEADNECK | 1.1 ± 0.043 | 1.15 ± 0.15 | 1.09 ± 0.13 | 0.944 ± 0.15 | 1.07 ± 0.034 | 1.25 ± 0.021 | 1.12 ± 0.12 | 1.17 ± 0.07 | 1 ± 0.036 | 0.979 ± 0.051 | 1.08 ± 0.062 | 1.06 ± 0.16 | 1.2 ± 0.082 | 1.1 ± 0.052 | 1.1 ± 0.065 | 1.1 ± 0.037
SG28 HEADNECK | 1.06 ± 0.059 | 1.06 ± 0.02 | 1.07 ± 0.09 | 1.14 ± 0.088 | 1.04 ± 0.017 | 1.12 ± 0.087 | 1.123 ± 0.011 | 0.976 ± 0.084 | 1.2 ± 0.12 | 1.1 ± 0.021 | 1.13 ± 0.07 | – | – | 1.097 ± 0.0071 | 1.23 ± 0.1 | 0.546 ± 0.052
